In US8119666B2, “1,2,5-thiazolidine derivatives useful for treating conditions mediated by protein tyrosine phosphatases (PTPase)” (Novartis AG, priority 2005, dated 2012) one finds IC50 data, which are given here for two compounds.

Structures are written as SMILES.

The assay addresses T1, human PTP-1B (Homo sapiens, UniProt P18031).
T1 construct: recombinant human PTP-1B[1-298] or PTP-1B[1-322]
T1 sequence (P18031 1-298 limits assumed): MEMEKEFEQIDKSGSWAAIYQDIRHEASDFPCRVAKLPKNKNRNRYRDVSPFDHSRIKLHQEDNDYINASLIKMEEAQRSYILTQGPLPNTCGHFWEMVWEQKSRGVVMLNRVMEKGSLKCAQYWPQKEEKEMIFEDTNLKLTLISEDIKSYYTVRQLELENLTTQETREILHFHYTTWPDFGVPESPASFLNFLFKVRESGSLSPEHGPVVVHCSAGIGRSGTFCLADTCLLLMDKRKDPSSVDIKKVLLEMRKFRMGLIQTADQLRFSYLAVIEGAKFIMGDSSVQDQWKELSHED
In words: PTP-1B inhibitory activity in vitro (IC50). It is filed as biochemical. Particulars: inhibitory activity to human PTP-1B; which of the described assay formats was used is not stated. The protocol:
Assessment of human PTP-1B (hPTP-1B) activity in the presence of various agents is determined by measuring the amount of inorganic phosphate released from a phosphopeptide substrate using a 96-well microtiter plate format. The assay (100 μL) is performed in an assay buffer comprised of 50 mM TRIS (pH 7.5), 50 mM NaCl, 3 mM DTT at ambient temperature. The assay is typically performed in the presence of 0.4% dimethyl sulfoxide (DMSO). However, concentrations as high as 10% are used with certain poorly soluble compounds. […] Inorganic phosphate, a product of the enzyme reaction, is quantitiated after 15 min as the green color resulting from complexing with the Malichite reagent and is determined as an A620 using a Molecular Devices (Sunnyvale, Calif.) SpectraMAX Plus spectrophotometer. […] Activity is defined as the net change in absorbance resulting from the activity of the uninhibited hPTP-1B[1-411] minus that of a tube with acid-inactivated hPTP-1B[1-411].
Alternatively, the assessment of human PTP-1B activity in the presence of various agents may be determined by measuring the hydrolysis products of known competing substrates. For example, cleavage of substrate para-nitrophenylphosphate (pNPP) results in the release of the yellow-colored para-nitrophenol (pNP) which can be monitored in real time using a spectrophotometer. […]

Usually IC50 stands for the concentration that inhibits the measured activity by half. `CS(=O)(=O)Oc1c(Cl)cccc1Cc1ccc(N2CC(=O)NS2(=O)=O)c(O)c1` [Example No. 52-1, Methanesulfonic acid 2-chloro-6-[3-hydroxy-4-(1,1,4-trioxo-1,2,5-thiadiazolidin-2-yl)-benzyl]-phenyl ester] came in with an IC50 of 126 nM.

For the compound `COc1ccc(Cc2ccc(N3CC(=O)NS3(=O)=O)c(O)c2)c(OS(C)(=O)=O)c1` [Example No. 52-3, Methanesulfonic acid 2-[3-hydroxy-4-(1,1,4-trioxo-1,2,5-thiadiazolidin-2-yl)-benzyl]-5-methoxyphenyl ester], the 50% inhibitory concentration (IC50) was found to be 133 nM.
